Measured values as given in BindingDB's records for doi:10.1021/jm900517t.

What was measured:
Assay in all cases: HCV RNA-Dependent RNA Polymerase Assay (IC50)
Genome polyprotein [1] = target: Genome polyprotein (Hepatitis C virus genotype 2b (isolate HC-J8), UniProt P26661)
Genome polyprotein [2] = target: Genome polyprotein (Hepatitis C virus genotype 1b (isolate BK), UniProt P26663); conditions: pH 7.5; 23 °C
[3] = target: T1, Genome polyprotein [2420-2989,R2920E,R2963Q] (Hepatitis C virus genotype 1b (isolate BK), UniProt P26663, R2920E/R2963Q); conditions: pH 7.5; 23 °C
T1 construct: 2420-2989

[4] = target: T2, Genome polyprotein [2420-2989,M2842K,R2963Q] (Hepatitis C virus genotype 1b (isolate BK), UniProt P26663, M2842K/R2963Q); conditions: pH 7.5; 23 °C
T2 construct: 2420-2989
T2 sequence (P26663 2420-2997, looked up, stated change not applied): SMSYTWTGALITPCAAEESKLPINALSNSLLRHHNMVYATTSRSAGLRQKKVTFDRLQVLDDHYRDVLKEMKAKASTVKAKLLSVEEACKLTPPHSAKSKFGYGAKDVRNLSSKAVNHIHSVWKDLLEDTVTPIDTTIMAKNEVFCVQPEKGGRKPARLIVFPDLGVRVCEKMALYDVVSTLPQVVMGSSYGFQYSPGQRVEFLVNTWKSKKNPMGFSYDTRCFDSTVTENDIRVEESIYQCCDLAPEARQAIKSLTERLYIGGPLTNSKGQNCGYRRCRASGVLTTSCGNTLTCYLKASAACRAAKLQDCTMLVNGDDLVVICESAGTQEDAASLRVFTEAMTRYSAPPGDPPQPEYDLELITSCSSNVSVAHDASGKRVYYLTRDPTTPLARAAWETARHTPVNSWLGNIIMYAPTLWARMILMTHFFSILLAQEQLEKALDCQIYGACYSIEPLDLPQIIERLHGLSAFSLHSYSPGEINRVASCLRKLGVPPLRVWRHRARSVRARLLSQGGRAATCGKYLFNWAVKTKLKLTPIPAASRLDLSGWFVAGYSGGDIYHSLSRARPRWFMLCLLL

Genome polyprotein (Hepatitis C virus genotype 2b (isolate HC-J8), UniProt P26661), sequence (P26661 2443-3033 limits assumed): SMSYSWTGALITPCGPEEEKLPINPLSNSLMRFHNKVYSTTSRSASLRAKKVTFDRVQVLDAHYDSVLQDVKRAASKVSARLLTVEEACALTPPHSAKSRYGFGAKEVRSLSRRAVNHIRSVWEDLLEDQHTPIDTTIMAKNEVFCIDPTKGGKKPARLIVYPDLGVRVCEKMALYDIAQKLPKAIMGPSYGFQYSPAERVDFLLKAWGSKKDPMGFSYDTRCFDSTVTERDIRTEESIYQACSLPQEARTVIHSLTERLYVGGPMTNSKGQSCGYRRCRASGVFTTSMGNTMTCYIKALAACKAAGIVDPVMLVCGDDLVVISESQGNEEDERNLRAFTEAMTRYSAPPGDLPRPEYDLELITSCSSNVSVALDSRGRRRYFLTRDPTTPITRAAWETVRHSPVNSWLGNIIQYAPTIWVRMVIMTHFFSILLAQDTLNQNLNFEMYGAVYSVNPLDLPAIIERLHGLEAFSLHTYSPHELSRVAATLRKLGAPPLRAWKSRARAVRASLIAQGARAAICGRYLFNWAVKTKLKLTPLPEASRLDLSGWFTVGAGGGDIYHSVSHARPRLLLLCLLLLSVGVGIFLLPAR
Genome polyprotein (Hepatitis C virus genotype 1b (isolate BK), UniProt P26663), sequence (P26663 2420-3010 limits assumed): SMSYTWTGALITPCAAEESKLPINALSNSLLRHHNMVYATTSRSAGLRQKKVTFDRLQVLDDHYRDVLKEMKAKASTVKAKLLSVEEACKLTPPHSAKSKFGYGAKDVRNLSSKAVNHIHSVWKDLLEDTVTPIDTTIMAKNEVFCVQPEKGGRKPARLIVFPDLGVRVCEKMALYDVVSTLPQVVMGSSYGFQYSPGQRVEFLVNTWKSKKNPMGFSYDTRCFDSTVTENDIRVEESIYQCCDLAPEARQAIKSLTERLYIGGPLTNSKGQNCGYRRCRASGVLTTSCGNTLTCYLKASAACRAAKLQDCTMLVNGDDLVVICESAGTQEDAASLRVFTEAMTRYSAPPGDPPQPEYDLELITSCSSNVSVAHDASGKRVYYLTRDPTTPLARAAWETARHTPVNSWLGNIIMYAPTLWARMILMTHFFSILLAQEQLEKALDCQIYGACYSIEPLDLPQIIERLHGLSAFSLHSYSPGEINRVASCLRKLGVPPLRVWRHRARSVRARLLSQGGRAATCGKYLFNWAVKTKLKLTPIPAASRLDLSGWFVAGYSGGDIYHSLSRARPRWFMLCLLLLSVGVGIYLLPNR
T1 sequence (P26663 2420-2997, looked up, stated change not applied): as the sequence (P26663 2420-2997, looked up, stated change not applied) above

Row | Structure (SMILES) | IC50 (Genome polyprotein [1]) | IC50 (Genome polyprotein [2]) | IC50 [3] | IC50 [4]
1 | O=C1c2cccc3c(NCCO)ccc(c23)C(=O)N1c1ccccc1 [1H-benzo[de]isoquinoline-1,3(2H)-dione, 4] | > 50 µM | – | – | –
2 | O=C1c2cccc3cccc(c23)C(=O)N1c1cccc(Br)c1 [1H-benzo[de]isoquinoline-1,3(2H)-dione, 5] | > 50 µM | > 50 µM | – | –
3 | O=C1c2cccc3c(NCCO)ccc(c23)C(=O)N1c1cccc(F)c1 [1H-benzo[de]isoquinoline-1,3(2H)-dione, 13] | > 50 µM | – | – | –
4 | NS(=O)(=O)c1cccc(N2C(=O)c3cccc4c(NCCO)ccc(c34)C2=O)c1 [1H-benzo[de]isoquinoline-1,3(2H)-dione, 14] | > 50 µM | – | – | –
5 | OCCNc1ccc2c3c(cccc13)CN(c1cccc(Br)c1)C2 [benzo[de]isoquinoline, 11] | > 50 µM | > 50 µM | – | –
6 | CC(C)N(c1cc(-c2ccccc2)sc1C(=O)O)C(=O)[C@H]1CC[C@H](C)CC1 [thiophene scaffold, 21] | > 10 µM | – | 0.1 µM | > 0.5 µM
